These are literature values, as cited in paper PMC6525986 (Theranostics, 2019).

This series has as its target protein arginine methyltransferase 5 (PRMT5) (Homo sapiens, UniProt O14744). The series can be described thus: PRMT5 enzymatic inhibition assay. It is filed as biochemical.

protein arginine methyltransferase 5 (PRMT5), sequence (O14744 2-637): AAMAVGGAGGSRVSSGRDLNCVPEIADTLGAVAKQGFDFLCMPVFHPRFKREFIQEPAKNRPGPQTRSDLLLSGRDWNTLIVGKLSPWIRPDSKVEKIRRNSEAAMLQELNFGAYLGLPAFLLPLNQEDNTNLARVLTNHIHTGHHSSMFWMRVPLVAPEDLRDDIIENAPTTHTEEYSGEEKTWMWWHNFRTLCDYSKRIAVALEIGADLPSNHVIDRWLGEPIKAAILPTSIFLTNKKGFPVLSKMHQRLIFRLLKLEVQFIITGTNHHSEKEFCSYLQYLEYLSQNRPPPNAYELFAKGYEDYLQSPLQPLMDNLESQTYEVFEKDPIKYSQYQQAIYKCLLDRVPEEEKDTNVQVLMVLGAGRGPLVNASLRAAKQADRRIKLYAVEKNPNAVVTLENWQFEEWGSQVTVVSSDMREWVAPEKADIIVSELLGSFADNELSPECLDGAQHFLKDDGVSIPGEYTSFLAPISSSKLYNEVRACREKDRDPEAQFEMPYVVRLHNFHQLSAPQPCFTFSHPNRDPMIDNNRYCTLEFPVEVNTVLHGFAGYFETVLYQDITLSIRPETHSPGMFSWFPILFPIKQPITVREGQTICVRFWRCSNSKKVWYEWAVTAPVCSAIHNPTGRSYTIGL

By IC50 is commonly meant the midpoint of a concentration-inhibition curve. Consider DW14800 [compound 39], for which the IC50 is 17 nM.
